Measurements: patent publication EP4772505A1, “COMPOUND FOR DEGRADING ANDROGEN RECEPTOR AND MEDICAL USE THEREOF” (Ubix Therapeutics, Inc., priority 2023, dated 2025)
Read-outs that look alike come from different tables or passages of the source.

Experiment: Plasma and tumor tissue concentrations following oral administration in VCaP xenograft model (HPLC/MS/MS)
Format: in vivo, mice
Details: mouse, 10 mg/kg orally once daily for 3 days
Method: The plasma and tumor tissue concentrations of the drug administered orally to a xenograft model using VCaP cells were analyzed as follows.
[Blood collection and tumor tissue extraction] The prepared drug was administered orally at a dose of 10 mg/kg once daily at the same time for 3 days. The mice were sacrificed 2, 6, and 24 hours after the last administration. Blood collection and tumor tissue extraction were performed immediately after sacrifice at each hour. Blood collected from the heart was placed in a K2EDTA tube for 30 minutes and then centrifuged at 15,000 rpm at 4°C for 10 minutes. The supernatant plasma was separated and stored at -20°C for analysis. The extracted tumor tissue was washed in PBS, cut into pieces of approximately 10 mg, and stored at -80°C for analysis.
[Sample Preparation] Cancer tissue was homogenized once at 5,500 rpm for 20 seconds after adding distilled water 9 times the tissue weight using a tissue homogenizer (Precellys Evolution, Bertin Technology). For cancer tissue, 20 µL of the homogenate was mixed with 20 µL of blank plasma sample, 20 µL of internal standard (carbamazepine, 30 ng/mL in acetonitrile), and 140 µL of acetonitrile. For plasma, 20 µL of the plasma sample was mixed with 20 µL of blank liver tissue sample, 20 µL of internal standard, and 140 µL of acetonitrile. Afterwards, the mixed sample was suspended for 10 minutes using a vortex mixer and centrifuged at 13,500 rpm for 10 minutes at room temperature. 140 µL of the supernatant was collected and transferred to an analysis container.
[Sample Analysis] Drug concentrations in cancer tissue and plasma samples were quantified using an HPLC/MS/MS system. 5 µL of the sample prepared in the analytical vessel was injected into the HPLC/MS/MS system for analysis. For drug quantification, a combination of 0.1% formic acid in distilled water and 0.1% formic acid in acetonitrile was used as the mobile phase. The analytical column used was a reverse-phase C18 column, and chromatograms were analyzed using isocratic elution. Ion detection was performed in ESI positive MRM mode, and peak integration was performed using Analyst software version 1.6.4 (Applied Biosystems/MDS SCIEX). Drug concentrations in cancer tissue were calculated by multiplying the concentrations obtained from the analysis of cancer tissue homogenate by a dilution factor of 10.

Q: For `N#Cc1ccc(N2CCC(C(=O)Nc3ccc(OC4CCN(CC5CCN(c6ccc(N[C@H]7CCC(=O)NC7=O)cc6F)CC5)CC4)cn3)CC2)cc1C(F)(F)F` [Example 2, (S)-1-(4-cyano-3-(trifluoromethyl)phenyl)-N-(5-((1-((1-(4-((2,6-dioxopiperidin-3-yl)amino)-2-fluorophenyl)piperidin-4-yl)methyl)piperidin-4-yl)oxy)pyridin-2-yl)piperidine-4-carboxamide], which concentration at 2 h (plasma, 2 hours after the last administration, read-out: Concentration in Plasma) is on record?
A: The concentration at 2 h was 816 ng/mL.

Q: What about the concentration at 6 h (plasma, 6 hours after the last administration, read-out: Concentration in Plasma) of the same compound?
A: The concentration at 6 h was 610 ng/mL.

Q: And the concentration at 24 h (plasma, 24 hours after the last administration, read-out: Concentration in Plasma)?
A: The concentration at 24 h was 51 ng/mL.

Q: And the Kp at 2 h (tumor tissue / plasma, 2 hours after the last administration, read-out: Tissue to Plasma Ratio)?
A: The Kp at 2 h was 6.78.

Q: What about the Kp at 6 h (tumor tissue / plasma, 6 hours after the last administration, read-out: Tissue to Plasma Ratio) of the same compound?
A: Its Kp at 6 h is 10.1.

Q: What about the Kp at 24 h (tumor tissue / plasma, 24 hours after the last administration, read-out: Tissue to Plasma Ratio) of the same compound?
A: Its Kp at 24 h is 16.3.

Q: And the concentration at 2 h (tumor tissue, 2 hours after the last administration, read-out: Concentration in Tumor Tissue)?
A: The concentration at 2 h was 5560 ng/g.

Q: What about the concentration at 6 h (tumor tissue, 6 hours after the last administration, read-out: Concentration in Tumor Tissue) of the same compound?
A: The concentration at 6 h was 6130 ng/g.

Q: What about the concentration at 24 h (tumor tissue, 24 hours after the last administration, read-out: Concentration in Tumor Tissue) of the same compound?
A: Its concentration at 24 h is 834 ng/g.
